The values that follow come from patent US7119077B1, “Multimeric forms of members of the steroid/thyroid superfamily of receptors with the ultraspiracle receptor” (The Salk Institute for Biological Studies, priority 1990, dated 2006).

Assay [1] deals with T1, EcR/usp (Drosophila melanogaster, UniProt P34021).
T1 construct: expressed in transfected cells; host or cells: CV1 monkey kidney cells
T1 sequence (P34021 1-878): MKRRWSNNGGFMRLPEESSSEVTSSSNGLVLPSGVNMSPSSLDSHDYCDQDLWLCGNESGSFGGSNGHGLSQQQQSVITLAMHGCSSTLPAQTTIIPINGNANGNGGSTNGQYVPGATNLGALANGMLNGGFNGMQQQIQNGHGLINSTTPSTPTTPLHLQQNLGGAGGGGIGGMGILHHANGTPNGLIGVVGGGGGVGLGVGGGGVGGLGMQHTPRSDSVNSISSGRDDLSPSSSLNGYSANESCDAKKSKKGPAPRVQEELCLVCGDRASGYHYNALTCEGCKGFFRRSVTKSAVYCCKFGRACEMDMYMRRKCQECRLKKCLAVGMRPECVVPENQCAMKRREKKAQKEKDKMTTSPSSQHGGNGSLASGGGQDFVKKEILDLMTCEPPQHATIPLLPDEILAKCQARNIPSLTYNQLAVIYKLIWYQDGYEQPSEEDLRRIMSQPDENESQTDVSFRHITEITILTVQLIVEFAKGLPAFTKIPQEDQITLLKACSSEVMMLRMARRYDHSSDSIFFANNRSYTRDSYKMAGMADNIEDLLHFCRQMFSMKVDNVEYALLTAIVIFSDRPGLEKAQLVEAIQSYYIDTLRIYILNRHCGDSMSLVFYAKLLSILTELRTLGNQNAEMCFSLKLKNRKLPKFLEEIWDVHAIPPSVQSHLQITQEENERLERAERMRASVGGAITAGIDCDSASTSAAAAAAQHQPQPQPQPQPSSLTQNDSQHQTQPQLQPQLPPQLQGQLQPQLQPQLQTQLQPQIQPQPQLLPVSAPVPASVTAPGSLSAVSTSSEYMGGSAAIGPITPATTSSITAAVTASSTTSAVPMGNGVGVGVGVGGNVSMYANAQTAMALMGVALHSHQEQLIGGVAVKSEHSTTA
Kind of assay: Cotransfection CAT reporter assay with EcR and/or usp expression vectors in CV1 cells. The format is cell-based, monkey kidney cells (CV1). The conditions noted are these: CV1 cells transfected with EcR alone, ΔMTV-EcRE5-CAT reporter, 40 μM. The method, then:
(§1) Transfection was performed with calcium-phosphate precipitation method as described previously [Umesono et al., Nature 336:262–264 (1989)]. CV1 monkey kidney cells were maintained in Dulbecco's modified Eagle's medium (DMEM) supplemented with 10% calf bovine serum. The cells were transfected for 8–9 hours and then the DNA precipitates were washed away and replaced with fresh medium with 10% charcoal-resin double stripped fetal bovine serum. 20-hydroxy-ecdysone (Sigma; 10 mg/ml in ethanol), or ethanol alone was then given to the cells. 24–28 hours later, the cells were harvested. Beta-galactosidase (βGal) activity was measured and a normalized amount of extract was used for CAT assay (Umesono et al. (1989) supra]. The following amount of plasmid DNA was included in the 10 cm plate transfection: 250 ng each of CMX-EcR and RSV-GEcR; 500 ng of CMX-usp; 5 μg ΔMTV-EcRE5-CTA; 5 μg of βGal internal control plasmid CH111 (a derivative of CH110, Promega). The amount of CMX plasmid was kept constant in each transfection by adding CMX-luciferase. PGEM4 was added to bring the total amount of plasmid DNA to 15 μg per plate.
(§2) Ecdysone response in CV1 cells was determined by using an ecdysone-responsive reporter gene (ΔMTV-EcRE5-CAT), which contains the same core hsp27-EcRE motif tested in DNA binding assay described earlier. The chloramphenicol acetyl transferase (CAT) activity induced by ecdysone was measured in the presence of different combinations of transfected EcR and usp expression vectors. CAT activity is expressed in FIG. 2 as the percentage of conversion which is normalized against the level in EcR alone at the presence of ecdysone assigned as one (column 1, shaded rectangle). The final concentration of 20-hydroxy-ecdysone (Sigma) is 40 μM. […] Cotransfection of EcR and usp together is shown in column 3 and the induction of CAT activity could be observed by about 3 fold.
(§3) To test whether usp can complement the EcR activity as it did in the DNA binding assay, usp expression vector was cotransfected with EcR into CV1 cells. Cotransfection of usp with EcR indeed was able to confer a significant response to 20-OH-ecdysone (over 3 fold, FIG. 2A). […] The level of induction by EcR and usp in CV1 cells is significant but somewhat lower than expected compared with the interaction in DNA binding assay.

Assay [2] concerns EcR/usp. The assay is described as above. The conditions noted are these: 40 μM. The format is cell-based, monkey kidney cells (CV1). The protocol:
as §1, §2, §3

Entries after “also recorded” stand apart in the source; their conditions may differ.

Regarding 20-Hydroxyecdysone [20-OH-ecdysone], the “ecdysone responsiveness (CAT activity)” value was “does not respond” in assay [1]; “failed to confer responsiveness” in assay [1] (listed as 20-hydroxy-ecdysone); “does not respond; also recorded: did not result in ecdysone responsiveness” in assay [2] (CV1 cells transfected with usp alone, ΔMTV-EcRE5-CAT reporter); “did not result in ecdysone responsiveness” in assay [2] (CV1 cells, parental ΔMTV-CAT reporter without EcRE); “does not respond” in assay [2] (CV1 cells, parental ΔMTV-CAT reporter without EcRE, listed as ecdysone).
